Experimental data published in patent US20160115540A1, “PRODRUGS AND DRUGS” (Biogen MA Inc., priority 2013, published 2016).
Counter-ions that a name gives are not always drawn.

Test system: lymph node
Assay: Transcriptional profiling, chronic dosing, EAE mice: lymph node
Assay type: in vivo
Conditions: for Number of differentially expressed genes identified: Lymph Node: EAE, Chronic Dosing
Description: EAE induction is generally performed by immunization with brain extracts, CNS proteins (such as myelin basic protein), or peptides from such protein emulsified in an adjuvant such as complete Freund's adjuvant, e.g., as described in Linker et al., Brain. 2011 March 134(Pt3): 678-92. […] FIG. 17 depicts exemplary immunophenotyping panels used to analyze various immune cell populations (e.g., T cells, T regulatory cells, NK cells, B cells, myeloid cells). […] The number of independent mice whose tissues were harvested for transcript profiling studies and whose data passed QC is shown in TABLE 15. Animals were exposed to CO2 and whole blood collected via cardiac puncture. Two 100 μl aliquots of whole blood were collected in 1.5 mL microcentrifuge tubes and snap frozen in liquid nitrogen. Peripheral (liver, spleen, kidney and jejunum) and CNS brain (cerebellum, hippocampus, striatum and cortex) tissues were harvested and snap frozen in liquid nitrogen, with special care taken to collect tissues of similar size and from the same location. All samples were stored at -80° C. until RNA extraction was conducted. For RNA preparation, frozen tissues were placed in 2 mL RNAse-free 96-well blocks with 1.5 mL QIAzol Lysis Reagent (QIAgen) and a 3.2 mm stainless steel bead (BioSpec Products, Bartlesville, Okla.). Tissues were disrupted for four cycles of 45 seconds in a Mini-Beadbeater (Biospec Products). RNA was extracted in chloroform and the aqueous phase was mixed with an equal volume of 70% ethanol. Extracted RNA was applied to RNeasy 96 plates and purified by the spin method according to the manufacturer's protocol (RNeasy 96 Universal Tissue Protocol, QIAgen, Hilden Germany). […] Washing and staining of the hybridized arrays were completed as described in the GeneChip Expression analysis technical manual for HT plate arrays using the Genechip® Array Station (Affymetrix, Santa Clara, Calif.) with modifications as described in […] et al. The processed GeneChip® plate arrays were scanned using GeneTitan scanner (Affymetrix, Santa Clara, Calif.). Affymetrix scans were subject to quality control (QC) measures. These tests included a visual inspection of the distribution of raw signal intensities and an assessment of RNA degradation, relative log expression (RLE), and normalized unscaled standard error (NUSE). All sample scans that passed these QC metrics were included in the analysis. All CEL files were subjected to GC-content-based Robust Multi-array Average (GCRMA) normalization (version 2.20.0) (Irizarry R A, et al. Nucleic Acids Res 2003; 31:e15; Li C, et al. Genome Biol 2001; 2:[…]0032). […] Stat Appl Genet Mol Biol 2004; 3:Article3). […] Springer Science+Business Media 2005). Changes in gene expression were studied by applying a linear modeling approach to fit gene expression levels according to the defined groups of samples (e.g. DMF-, MMF-, and Vehicle-treated animals) and Bayesian posterior error analysis as implemented by Smyth (Smyth G K. Stat Appl Genet Mol Biol 2004; 3:Article3). The comparisons considered included: DMF-vs-MMF, DMF-vs-Vehicle, MMF-vs-Vehicle, and Vehicle-vs-Naïve.

[1] = lymph node, 100DMF-vs-90MMF, 7 h
[2] = lymph node, 100DMF-vs-90MMF, 12 h
[3] = lymph node, 100DMF-vs-Veh, 12 h
[4] = lymph node, 100MMF-vs-Veh, 12 h

Compound: COC(=O)/C=C/C(=O)OC [DMF, dimethyl fumarate]
- Number of differentially expressed genes identified: Lymph Node (100 mpk DMF-vs-90 mpk MMF, 7 h after last dosing): 2
- Number of differentially expressed genes identified: Lymph Node (100 mpk DMF-vs-90 mpk MMF, 12 h after last dosing): 6
- Number of differentially expressed genes identified: Lymph Node (100 mpk DMF-vs-Vehicle, 7 h after last dosing): 14
- Number of differentially expressed genes identified: Lymph Node (100 mpk DMF-vs-Vehicle, 12 h after last dosing): 8
- FC BC005685 (1426188_PM_s_at) [1]: −1.54
- FC Slc10a6 (1428776_PM_at) [1]: −1.52
- FC 1442025_PM_a_at (no gene symbol) [2]: 2.64
- FC 1442026_PM_at (no gene symbol) [2]: 2.92
- FC Angptl4 (1417130_PM_s_at) [2]: 2.93
- FC Cpt1a (1460409_PM_at) [2]: 1.56
- FC Klf11 (1437241_PM_at) [2]: 1.91
- FC Zbtb16 (1419874_PM_x_at) [2]: 2.14
- FC Clec4e (1420330_PM_at) (lymph node, 100DMF-vs-Veh, 7 h): 1.55
- FC Clec4d (1420804_PM_s_at) (lymph node, 100DMF-vs-Veh, 7 h): 1.85
- FC Gdf3 (1449288_PM_at) (lymph node, 100DMF-vs-Veh, 7 h): −1.57
- FC Mmp12 (1449153_PM_at) (lymph node, 100DMF-vs-Veh, 7 h): 3.33
- FC Nqo1 (1423627_PM_at) (lymph node, 100DMF-vs-Veh, 7 h): 2.79
- FC Osgin1 (1424022_PM_at) (lymph node, 100DMF-vs-Veh, 7 h): 1.54
- FC Rnf128 (1449036_PM_at) (lymph node, 100DMF-vs-Veh, 7 h): 1.71
- FC Slc11a1 (1420361_PM_at) (lymph node, 100DMF-vs-Veh, 7 h): 1.57
- FC Srxn1 (1419942_PM_at) (lymph node, 100DMF-vs-Veh, 7 h): 1.98
- FC Srxn1 (1426875_PM_s_at) (lymph node, 100DMF-vs-Veh, 7 h): 1.83
- FC Tnfaip2 (1416273_PM_at) (lymph node, 100DMF-vs-Veh, 7 h): 1.82
- FC Tnfaip2 (1438855_PM_x_at) (lymph node, 100DMF-vs-Veh, 7 h): 1.52
- FC Ugt1a1 /// Ugt1a10 /// Ugt1a2 /// Ugt1a5 /// Ugt1a6a /// Ugt1a6b /// Ugt1a7c /// Ugt1a9 (1424783_PM_a_at) (lymph node, 100DMF-vs-Veh, 7 h): 1.52
- FC Ugt1a1 /// Ugt1a10 /// Ugt1a2 /// Ugt1a5 /// Ugt1a6a /// Ugt1a6b /// Ugt1a7c /// Ugt1a9 (1426261_PM_s_at) (lymph node, 100DMF-vs-Veh, 7 h): 1.62
- FC 1442025_PM_a_at (no gene symbol) [3]: 2.35
- FC 1442026_PM_at (no gene symbol) [3]: 2.48
- FC Clec4d (1420804_PM_s_at) [3]: 2.19
- FC Gzmk (1422280_PM_at) [3]: 1.92
- FC Npas2 (1421037_PM_at) [3]: 1.53
- FC Nqo1 (1423627_PM_at) [3]: 1.70
- FC Ugt1a1 /// Ugt1a10 /// Ugt1a2 /// Ugt1a5 /// Ugt1a6a /// Ugt1a6b /// Ugt1a7c /// Ugt1a9 (1424783_PM_a_at) [3]: 1.56
- FC Zbtb16 (1419874_PM_x_at) [3]: 2.07
- Zbtb16 transcript signal, DMF-treated compared to MMF-treated animals (lymph node, chronically dosed EAE mice, 12 h after final dosing): increased signal

Compound: COC(=O)/C=C/C(=O)O [MMF, monomethyl fumarate]
- Number of differentially expressed genes identified: Lymph Node (90 mpk MMF-vs-Vehicle, 7 h after last dosing): 21
- Number of differentially expressed genes identified: Lymph Node (90 mpk MMF-vs-Vehicle, 12 h after last dosing): 7
- FC BC005685 (1426188_PM_s_at) (lymph node, 100MMF-vs-Veh, 7 h): 1.54
- FC C78662 (1442498_PM_at) (lymph node, 100MMF-vs-Veh, 7 h): 1.68
- FC Clec4e (1420330_PM_at) (lymph node, 100MMF-vs-Veh, 7 h): 2.02
- FC Clec4e (1420331_PM_at) (lymph node, 100MMF-vs-Veh, 7 h): 1.80
- FC Clec4d (1420804_PM_s_at) (lymph node, 100MMF-vs-Veh, 7 h): 2.40
- FC Ctgf (1416953_PM_at) (lymph node, 100MMF-vs-Veh, 7 h): 2.34
- FC Hs3st1 (1423450_PM_a_at) (lymph node, 100MMF-vs-Veh, 7 h): 1.72
- FC Il1f9 1425958_PM_at (lymph node, 100MMF-vs-Veh, 7 h): 1.86
- FC Mmp12 (1449153_PM_at) (lymph node, 100MMF-vs-Veh, 7 h): 5.16
- FC Nqo1 (1423627_PM_at) (lymph node, 100MMF-vs-Veh, 7 h): 2.59
- FC Osgin1 (1424022_PM_at) (lymph node, 100MMF-vs-Veh, 7 h): 1.50
- FC Pla2g7 (1430700_PM_a_at) (lymph node, 100MMF-vs-Veh, 7 h): 1.67
- FC Rnf128 (1449036_PM_at) (lymph node, 100MMF-vs-Veh, 7 h): 1.81
- FC Slc11a1 (1420361_PM_at) (lymph node, 100MMF-vs-Veh, 7 h): 1.57
- FC Slc40a1 1448566_PM_at (lymph node, 100MMF-vs-Veh, 7 h): 1.87
- FC Slc40a1 (1417061_PM_at) (lymph node, 100MMF-vs-Veh, 7 h): 1.80
- FC Srxn1 (1419942_PM_at) (lymph node, 100MMF-vs-Veh, 7 h): 1.93
- FC Srxn1 (1426875_PM_s_at) (lymph node, 100MMF-vs-Veh, 7 h): 1.80
- FC Tnfaip2 (1416273_PM_at) (lymph node, 100MMF-vs-Veh, 7 h): 1.86
- FC Tnfaip2 (1438855_PM_x_at) (lymph node, 100MMF-vs-Veh, 7 h): 1.55
- FC Ugt1a1 /// Ugt1a10 /// Ugt1a2 /// Ugt1a5 /// Ugt1a6a /// Ugt1a6b /// Ugt1a7c /// Ugt1a9 (1426261_PM_s_at) (lymph node, 100MMF-vs-Veh, 7 h): 1.55
- FC Ccl3 (1419561_PM_at) [4]: 2.22
- FC Clec4d (1420804_PM_s_at) [4]: 2.43
- FC Kcne3 (1418499_PM_a_at) [4]: 1.56
- FC Mmp9 (1416298_PM_at) [4]: 1.82
- FC Mmp12 (1449153_PM_at) [4]: 3.95
- FC Npas2 (1421037_PM_at) [4]: 1.56
- FC Tnfaip2 (1416273_PM_at) [4]: 1.54
